{
  "source": "patent US11549142B2",
  "about": "“CETP inhibitors for therapeutic use” (Hoffmann-La Roche Inc., priority 2013, dated 2023)",
  "origin": "cited, not measured here",
  "tested_on": "patients",
  "details": "torcetrapib and atorvastatin concomitantly compared to atorvastatin alone; cited from earlier work",
  "data": [
    {"smiles": "CCOC(=O)N1c2ccc(C(F)(F)F)cc2[C@@H](N(Cc2cc(C(F)(F)F)cc(C(F)(F)F)c2)C(=O)OC)C[C@H]1CC", "note": "[torcetrapib, (2R,4S)-4-[(3,5-bistrifluoromethylbenzyl)methoxycarbonylamino]-2-ethyl-6-trifluoromethyl-3,4-dihydro-2H-quinoline-1-carboxylic acid ethyl ester]", "values": [
      {"measurement": "reason for termination of the Phase III clinical trial", "value": "incidence of mortality"}
    ]}
  ]
}
